Common to all, as to test: growth of human tumour cells (NCI), 48 h
Test [1] concerns DLD-1.
The subject of test [2] is DMS-114.
The subject of test [3] is HOP-18.
The subject of test [4] is KM-20L2.
Test [5] concerns M19-MEL.
Test [6] relates to DMS-273.
The subject of test [7] is SNB-78.
Test [8] deals with RXF 631.
For test [9], the system named is XF498.

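These data come from cells grown in 96-well plates and exposed to compound for 48 hours at five concentrations. Abbreviation: GI50, concentration required for 50% inhibition of growth.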 The source made the active and inactive calls. No stated cut-off is given here; in the data, active = GI50 up to about 1.1 µM and inactive = higher.

Here are results for 24 compounds from ChEMBL document CHEMBL1201862, “PubChem BioAssay data set” (2004).

Regarding `CCOc1ccc2c(ccc(/C=C/c3cc(C)c4cccnc4c3O)[n+]2C)c1`, the GI50 in test [1] was 1.28 µM (inactive); in test [2], 0.301 µM (active); in test [3], 2.8 µM (inactive); in test [4] it was 0.527 µM (active); in test [5] it was 2.99 µM (inactive).

In the case of `O=C(CSc1nnc(-c2ccc(/N=C\c3ccc(Cl)cc3)cc2)o1)Nc1cccc([N+](=O)[O-])c1`, the GI50 in test [2], in [6], in test [3], in [4], in test [5] and in test [7] was > 100 µM (inactive) throughout.

With `COC(=O)/C(=N\NC(=O)c1ccccc1O)C(C#N)c1ccc(Cl)cc1` (stereo not given), the GI50 in test [1] was 24.5 µM (inactive); in [2], 24.7 µM (inactive); in test [3], 69.3 µM (inactive); in test [4] it was 33.8 µM (inactive); in [5] it was 75.9 µM (inactive); in test [8], 36.1 µM (inactive). In addition, the GI50 in test [7] was 26.2 µM (inactive).

As to `O=C(c1ccccc1)C(c1ccccc1)C1(O)C(=O)Nc2ccc(Br)cc21` (stereo not given), the GI50 in [1] was 48.2 µM (inactive); in [2] it was 21.6 µM (inactive); in test [6], 31.6 µM (inactive); in [4], > 100 µM (inactive); in [5], 15.4 µM (inactive); in [8] it was 33.7 µM (inactive). The GI50 in test [7] was > 100 µM (inactive).

On to `Nc1c(C(=O)Nc2ccccc2O)[n+]([O-])c2ccccc2[n+]1[O-]`, for which the GI50 in [1] is > 100 µM (inactive); in test [2], 20.5 µM (inactive); in test [6], 32.6 µM (inactive); in [3], > 100 µM (inactive); in test [4] it was > 100 µM (inactive); in test [5], 14.2 µM (inactive). Besides, the GI50 was 50.6 µM (inactive) in test [8] and > 100 µM (inactive) in test [7].

Take `Cc1cc(=O)oc2cc(OCc3nc4ccccc4c(=O)[nH]3)ccc12`: the GI50 in test [1], in test [2], in test [6], in test [3], in test [4] and in [5] was > 100 µM (inactive) each time. In test [9], the GI50 is > 100 µM (inactive).

In the case of `CCC12C[N+]3([O-])CCc4c([nH]c5ccccc45)C(C(=O)OC)(c4cc5c(cc4OC)N(C)C4C(O)(C(=O)OC)C(OC(C)=O)C6(CC)C=CCN7CCC54C76)CC(C3)C1O2` (stereo not given), the GI50 in [1] was 0.883 µM (active); in [2], 0.36 µM (active); in test [6] it was 0.237 µM (active); in test [3], 16 µM (inactive); in test [4], 0.256 µM (active); in test [5], 0.617 µM (active). Moreover, the GI50 in [7] is 0.506 µM (active); in test [9] it was 0.407 µM (active).

Take `O=C1C(=O)N(c2nccs2)C(=O)C(=O)C1c1nc2ccccc2s1`: the GI50 was > 100 µM (inactive) in test [1]; > 100 µM (inactive) in [2]; > 100 µM (inactive) in test [6]; 9.23 µM (inactive) in test [3]; > 100 µM (inactive) in [4]; > 100 µM (inactive) in [5]. The GI50 in test [7] and in test [9] was > 100 µM (inactive) in each case.

`COc1ccccc1-c1cc(=O)c2cc(C)c(C)c(C(=O)O)c2o1`: the GI50 in test [1], in test [2], in test [6], in test [4], in [5] and in [7] was > 100 µM (inactive) throughout. Further, in [9], the GI50 is > 100 µM (inactive).

Take `O=C1N(c2ccc(Cl)cc2)C(=O)C2(SC=NN2Cc2ccccc2)N1c1ccc(Cl)cc1` (stereo not given): the GI50 in test [1] is > 100 µM (inactive); in test [2] it was 12.3 µM (inactive); in test [3] it was > 100 µM (inactive); in test [4] it was > 100 µM (inactive); in test [5], > 100 µM (inactive); in test [8] it was > 100 µM (inactive). Moreover, the figures for the GI50 in test [7] and in [9] were > 100 µM (inactive) and 28.6 µM (inactive), respectively.

For the compound `CC1(Cc2ccccc2)NC(=S)NC1=O` (stereo not given), the GI50 is > 100 µM (inactive) in [1]; > 100 µM (inactive) in test [2]; > 100 µM (inactive) in test [6]; 0.143 µM (active) in test [3]; > 100 µM (inactive) in test [4]; > 100 µM (inactive) in [5]. Moreover, the GI50 in test [8] and in [7] was > 100 µM (inactive) in each case.

Take `CN(C)C(=S)Nc1nnc(NC23CC4CC(CC(C4)C2)C3)s1.[O-][Cl+3]([O-])([O-])O`: the GI50 in test [2] was 19.4 µM (inactive); in test [6] it was 20.6 µM (inactive); in [4], 11.1 µM (inactive); in test [5], 19.6 µM (inactive); in test [7] it was 39.2 µM (inactive).

Consider `C/C(=N\NC(=S)NC(CCC(=O)O)C(=O)O)c1ccccn1` (stereo not given), for which the GI50 in [1], in test [2], in test [3], in test [4], in test [5] and in [8] was > 100 µM (inactive) each time. The GI50 in test [7] and in test [9] was > 100 µM (inactive) each time.

On to `Cc1cc(Cl)ccc1NC(=O)C(=O)C(C(=O)c1ccc2ccccc2c1)C1OC(=O)c2ccccc21` (stereo not given), for which the GI50 was 14.3 µM (inactive) in [1]; 6.15 µM (inactive) in test [2]; 12.4 µM (inactive) in test [6]; 0.544 µM (active) in [3]; 24 µM (inactive) in test [4]; 10.1 µM (inactive) in test [5]. Moreover, the figures for the GI50 in test [8] and in test [7] were 7.89 µM (inactive) and 10.3 µM (inactive), respectively.

For the compound `O=C(CSc1nnc(-c2ccc(/N=C\c3ccc(Cl)cc3)cc2)o1)Nc1ccc([N+](=O)[O-])cc1`, the GI50 in [2] was 16.2 µM (inactive); in test [6], 16.5 µM (inactive); in test [3] it was 29 µM (inactive); in test [4], 27.2 µM (inactive); in test [5] it was 17.1 µM (inactive); in test [7], 20 µM (inactive). In test [9], the GI50 is 22.9 µM (inactive).

As for `COc1cccc(N2C(=O)/C(=C/c3ccc(N(CCC#N)CCC#N)cc3)N=C2c2cc([N+](=O)[O-])ccc2Cl)c1`, the GI50 in test [1] was 60 µM (inactive); in test [2], > 100 µM (inactive); in [6], 38.2 µM (inactive); in test [3] it was > 100 µM (inactive); in test [4], 97.9 µM (inactive); in [8] it was > 100 µM (inactive). Also, the GI50 in test [7] was > 100 µM (inactive).

For `COC1=CC(=O)C(Br)=CC1=O`, the GI50 was 32.3 µM (inactive) in [1]; 20.5 µM (inactive) in test [2]; > 10 µM (inactive) in [6]; 33.3 µM (inactive) in test [4]; 17.7 µM (inactive) in test [5]; 31.6 µM (inactive) in test [8]. Further, the GI50 in test [7] is > 10 µM (inactive); in [9], 16.9 µM (inactive).

For `O=C1C2=C(c3ccccc31)C(c1ccccc1)N1C(=O)CSC1=N2` (stereo not given), the GI50 in test [1] is > 100 µM (inactive); in test [2], 43.1 µM (inactive); in test [6], 55.8 µM (inactive); in [4] it was 91 µM (inactive); in test [5] it was > 100 µM (inactive); in test [8], 80.9 µM (inactive). Besides, in test [9], the GI50 is > 100 µM (inactive).

On to `O=C(c1nc2ccc(Cl)cc2nc1O)C(O)c1ccc2c(c1)OCO2` (stereo not given), for which the GI50 in [1] is > 100 µM (inactive); in [2] it was 8.43 µM (inactive); in test [6], > 100 µM (inactive); in test [3] it was 12.8 µM (inactive); in test [4], 74.5 µM (inactive); in test [5] it was > 100 µM (inactive). The GI50 in test [8] and in test [9] was > 100 µM (inactive) in each case.

Take `CSc1nc2c(nc(N)n2C2OC(CO)C(O)C(O)C2O)c(=O)[nH]1` (stereo not given): the GI50 in test [1], in test [2], in test [3], in [4], in [5] and in test [8] was > 100 µM (inactive) in each case. The GI50 in [7] is > 100 µM (inactive); in test [9], 41.3 µM (inactive).

As to `CC(C)C1=CC23CCC4C(C)(C(=O)O)CCCC4(C)C2CC1C1C(=O)N(c2ccccc2)C(=O)C13` (stereo not given), the GI50 in test [1] was > 100 µM (inactive); in test [2], 35.4 µM (inactive); in test [6] it was 36.1 µM (inactive); in test [3] it was > 100 µM (inactive); in [4], 39.6 µM (inactive); in test [5], 57.8 µM (inactive). For the same compound, in [9], the GI50 is 35.2 µM (inactive).

As to `CC1=C2C(=CC(C)(C)C2O)C(=O)C(C)(O)C12CC2` (stereo not given), the GI50 in test [1] was 0.00665 µM (active); in test [2], 0.00794 µM (active); in test [6] it was 0.00489 µM (active); in test [3], 0.0337 µM (active); in [4], 0.00521 µM (active); in [5], 0.0157 µM (active). Moreover, the GI50 is 0.00893 µM (active) in test [7] and 0.00906 µM (active) in [9].

With `CC(=O)O[C@H]1C(=O)O[C@@H]2C[C@H]3C(C)=CC(=O)[C@@H](O)[C@]3(C)[C@H]3[C@@]4(O)OC[C@]32[C@@H]1[C@@H](C)[C@H]4O`, the GI50 is 0.03 µM (active) in test [1]; 0.0253 µM (active) in test [2]; 0.0264 µM (active) in test [6]; 0.177 µM (active) in test [3]; 0.0977 µM (active) in test [4]; 0.0272 µM (active) in [5]. The GI50 was 0.0515 µM (active) in [7] and 0.031 µM (active) in [9].

Turning to `O=C(Nc1ccccc1)OCc1nc2c([nH]1)C(=O)C=CC2=O`, the GI50 in test [1] was > 100 µM (inactive); in [6], 24.2 µM (inactive); in test [3], 10.5 µM (inactive); in test [4], 19.4 µM (inactive); in test [5], 16 µM (inactive); in test [7], 23.2 µM (inactive). Besides, the GI50 in [9] was 17.2 µM (inactive).
